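Results reflect a 48-hour exposure of cells in 96-well plates to compound at five concentrations. Abbreviation: GI50, concentration required for 50% inhibition of growth. TGI denotes the concentration required for complete inhibition of growth.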
Key:
Assay in all cases: growth of human tumour cells (NCI), 48 h
[1] = tested on: BT-549 breast
[2] = tested on: OVCAR-3 ovarian
[3] = tested on: KM12 colon
[4] = tested on: RXF 393 renal
[5] = tested on: MALME-3M melanoma
[6] = tested on: SK-OV-3 ovarian
[7] = tested on: DU-145 prostate
[8] = tested on: HL-60(TB) leukemia
[9] = tested on: TK-10 renal
[10] = tested on: UACC-257 melanoma
[11] = tested on: SF-268 CNS
[12] = tested on: MDA-MB-231 breast
[13] = tested on: COLO 205 colon
[14] = tested on: RPMI-8226 leukemia
[15] = tested on: NCI-H522 lung
[16] = tested on: SN12C renal
[17] = tested on: T-47D breast
[18] = tested on: CCRF-CEM leukemia
[19] = tested on: NCI-H460 lung
[20] = tested on: CAKI-1 renal
[21] = tested on: MCF7 breast
[22] = tested on: HCT-15 colon
[23] = tested on: OVCAR-4 ovarian
[24] = tested on: HOP-62 NSCLC
[25] = tested on: MOLT-4 leukemia
[26] = tested on: HS 578T breast
[27] = tested on: HCC-2998 colon
[28] = tested on: NCI/ADR-RES ovarian
[29] = tested on: OVCAR-8 ovarian
[30] = tested on: A549 NSCLC
[31] = tested on: A498 renal
[32] = tested on: SK-MEL-5 melanoma
[33] = tested on: IGROV1 ovarian
[34] = tested on: SK-MEL-28 melanoma
[35] = tested on: OVCAR-5 ovarian
[36] = tested on: SNB-75 CNS
[37] = tested on: MDA-MB-435
[38] = tested on: LOX IMVI melanoma
[39] = tested on: SF-295 CNS
[40] = tested on: SR leukemia
[41] = tested on: U251 CNS
[42] = tested on: SW-620 colon
[43] = tested on: ACHN renal
[44] = tested on: EKVX NSCLC
[45] = tested on: SNB-19 CNS
[46] = tested on: K-562 leukemia
[47] = tested on: NCI-H226 lung
[48] = tested on: SK-MEL-2 melanoma
[49] = tested on: PC-3 prostate
[50] = tested on: SF-539 CNS
[51] = tested on: UACC-62 melanoma
[52] = tested on: HOP-92 NSCLC
[53] = tested on: HT29 colon
[54] = tested on: UO-31 renal
[55] = tested on: M14 melanoma
[56] = tested on: HCT-116 colon
[57] = tested on: NCI-H23 lung

## COc1cccc(CNCCN2C(=O)c3ccc4c5c(ccc(c35)C2=O)C(=O)N(CCNCc2cccc(OC)c2)C4=O)c1
[1]
  GI50: 2.43 µM
  TGI: 6.12 µM
[2]
  GI50: 2.25 µM
  TGI: 5.93 µM
[3]
  GI50: 1.75 µM
  TGI: 3.93 µM
[4]
  GI50: 2.16 µM
  TGI: 7.58 µM
[5]
  GI50: 1.8 µM
  TGI: 3.76 µM
[6]
  GI50: 19.1 µM
  TGI: 35.5 µM
[7]
  GI50: 3.94 µM
  TGI: 14.9 µM
[8]
  GI50: 2.56 µM
  TGI: 4.99 µM
[9]
  GI50: 1.85 µM
  TGI: 4.31 µM
[10]
  GI50: 2.09 µM
  TGI: 3.82 µM
[11]
  GI50: 4.09 µM
  TGI: 27 µM
[12]
  GI50: 2.39 µM
  TGI: 6.61 µM
[13]
  GI50: 1.53 µM
  TGI: 2.95 µM
[14]
  GI50: 2.84 µM
  TGI: 7.45 µM
[15]
  GI50: 1.81 µM
  TGI: 3.46 µM
[16]
  GI50: 1.67 µM
  TGI: 3.24 µM
[17]
  GI50: 2.05 µM
  TGI: 5.3 µM
[18]
  GI50: 3.46 µM
  TGI: 13.5 µM
[19]
  GI50: 1.96 µM
  TGI: 4.33 µM
[20]
  GI50: 2.61 µM
  TGI: 8.27 µM
[21]
  GI50: 1.81 µM
  TGI: 4.39 µM
[22]
  GI50: 2.1 µM
  TGI: 4.82 µM
[23]
  GI50: 1.4 µM
  TGI: 2.71 µM
[24]
  GI50: 15 µM
  TGI: 30.8 µM
[25]
  GI50: 14.7 µM
  TGI: 47.9 µM
[26]
  GI50: 19 µM
  TGI: 52.8 µM
[27]
  GI50: 5.21 µM
  TGI: 19.1 µM
[28]
  GI50: 2.99 µM
  TGI: > 100 µM
[29]
  GI50: 2.15 µM
  TGI: 4.85 µM
[30]
  GI50: 2.49 µM
  TGI: 5.83 µM
[31]
  GI50: 14.8 µM
  TGI: 28.9 µM
[32]
  GI50: 1.52 µM
  TGI: 2.86 µM
[33]
  GI50: 2.36 µM
  TGI: 6.34 µM
[34]
  GI50: 2.22 µM
  TGI: 5.2 µM
[35]
  GI50: 21.1 µM
  TGI: 49.6 µM
[36]
  GI50: 11.2 µM
  TGI: 28 µM
[37]
  GI50: 1.84 µM
  TGI: 3.48 µM
[38]
  GI50: 1.79 µM
  TGI: 3.53 µM
[39]
  GI50: 1.82 µM
  TGI: 3.88 µM
[40]
  GI50: 0.332 µM
  TGI: 2.57 µM
[41]
  GI50: 2.42 µM
  TGI: 5.16 µM
[42]
  GI50: 2.15 µM
  TGI: 5.32 µM
[43]
  GI50: 6.28 µM
  TGI: 27.5 µM
[44]
  GI50: 15.7 µM
  TGI: 35.4 µM
[45]
  GI50: 2.88 µM
  TGI: 10.4 µM
[46]
  GI50: 3.03 µM
  TGI: 8.52 µM
[47]
  GI50: 34 µM
  TGI: > 100 µM
[48]
  GI50: 1.89 µM
  TGI: 3.85 µM
[49]
  GI50: 3.87 µM
  TGI: 21.6 µM
[50]
  GI50: 1.79 µM
  TGI: 3.4 µM
[51]
  GI50: 1.9 µM
  TGI: 4 µM
[52]
  GI50: 18.9 µM
  TGI: 41.2 µM

## COc1ccc2cnc(N)c(C#Cc3cc(C(=O)Nc4ccc(CN5CCN(C)CC5)c(C(F)(F)F)c4)cnc3C)c2c1
[1]
  GI50: 4.22 µM
  TGI: 16.4 µM
[2]
  GI50: 11.4 µM
  TGI: > 50 µM
[3]
  GI50: 0.005 µM
  TGI: 9.24 µM
[4]
  GI50: 0.488 µM
  TGI: 1.28 µM
[5]
  GI50: 0.0708 µM
  TGI: 1.83 µM
[6]
  GI50: > 21.1 µM
  TGI: > 50 µM
[7]
  GI50: 2.43 µM
  TGI: 10.1 µM
[8]
  GI50: 1.07 µM
  TGI: > 50 µM
[9]
  GI50: 3.22 µM
  TGI: 12.4 µM
[10]
  GI50: 1.2 µM
  TGI: 14.4 µM
[11]
  GI50: 2.68 µM
  TGI: > 29.6 µM
[12]
  GI50: 0.158 µM
  TGI: 3.91 µM
[53]
  GI50: 0.112 µM
  TGI: 6.01 µM
[13]
  GI50: 0.208 µM
  TGI: > 50 µM
[14]
  GI50: 2.55 µM
  TGI: 23.1 µM
[15]
  GI50: 7.81 µM
  TGI: 32.9 µM
[54]
  GI50: 0.412 µM
  TGI: 1.22 µM
[16]
  GI50: 0.49 µM
  TGI: > 25.3 µM
[55]
  GI50: 0.124 µM
  TGI: 5.35 µM
[56]
  GI50: 0.498 µM
  TGI: 9.88 µM
[17]
  GI50: > 50 µM
  TGI: > 50 µM
[18]
  GI50: 1.97 µM
  TGI: 13.1 µM
[19]
  GI50: 1.23 µM
  TGI: 4.46 µM
[20]
  GI50: 1.56 µM
  TGI: 9.25 µM
[21]
  GI50: 1.43 µM
  TGI: 22.2 µM
[22]
  GI50: 1.69 µM
  TGI: 12.9 µM
[23]
  GI50: 1.71 µM
  TGI: 14.6 µM
[24]
  GI50: 1.19 µM
  TGI: > 18.8 µM
[25]
  GI50: 0.906 µM
  TGI: 26.8 µM
[26]
  GI50: 0.269 µM
  TGI: 1.5 µM
[27]
  GI50: > 37.2 µM
  TGI: > 50 µM
[28]
  GI50: 10.3 µM
  TGI: > 34.7 µM
[29]
  GI50: 9.33 µM
  TGI: > 28.9 µM
[30]
  GI50: 6.59 µM
  TGI: > 26.9 µM
[31]
  GI50: 0.68 µM
  TGI: 3.04 µM
[32]
  GI50: 1.06 µM
  TGI: 7.9 µM
[57]
  GI50: 1.48 µM
  TGI: 12.5 µM
[33]
  GI50: 0.318 µM
  TGI: > 40.2 µM
[34]
  GI50: 0.372 µM
  TGI: 1.29 µM
[35]
  GI50: 0.64 µM
  TGI: 1.73 µM
[36]
  GI50: 0.801 µM
  TGI: 8.9 µM
[37]
  GI50: 0.24 µM
  TGI: 6.99 µM
[38]
  GI50: 0.153 µM
  TGI: 8.93 µM
[39]
  GI50: 9.47 µM
  TGI: > 33.7 µM
[40]
  GI50: 0.707 µM
  TGI: 2.86 µM
[41]
  GI50: 1.08 µM
  TGI: 2.81 µM
[42]
  GI50: 0.692 µM
  TGI: 6.25 µM
[43]
  GI50: 0.449 µM
  TGI: 3.54 µM
[44]
  GI50: 3.66 µM
  TGI: 19.4 µM
[45]
  GI50: 3.71 µM
  TGI: 14.7 µM
[46]
  GI50: 0.005 µM
  TGI: 0.749 µM
[47]
  GI50: 0.383 µM
  TGI: 2.59 µM
[48]
  GI50: 3.59 µM
  TGI: 14.6 µM
[49]
  GI50: 2.69 µM
  TGI: 9.17 µM
[50]
  GI50: 0.974 µM
  TGI: 7.91 µM
[51]
  GI50: 0.19 µM
  TGI: 4.2 µM
[52]
  GI50: 0.0629 µM
  TGI: 0.796 µM

From PubChem BioAssay (NCI)
